31 compounds from patent US7087642B2 (priority 1999, dated 2006) can be followed below.

Where two headings read alike, the source gives them in different places. Bounds are passed on as bounds.

The target of experiment [1] is IMPDH human type II (Homo sapiens, UniProt P12268). As to the kind of experiment: biochemical.
For experiment [2], the system named is human PBMC T cells. Put plainly: cells. Conditions: read-out: T-cells (IC50). The experiment is classed as cell-based.
The subject of experiment [3] is human PBMC B cells. Put plainly: cells. Particulars: read-out: B-cells (IC50). Format: cell-based.

As a reminder, the Ki is a measure of affinity in units of concentration, obtained from inhibition or displacement. In general, IC50 refers to the concentration at which inhibition is half-maximal. With `COc1cc(NC(=O)Nc2cccc(CNC(=O)OC3COCC3OCC(=O)OC(C)(C)C)c2)ccc1-c1cnco1` (stereo not drawn) [Compound 70], the Ki in experiment [1] (read-out: Ki) was below 10 nM. Besides, the IC50 in experiment [2] and in experiment [3] was above 1000 nM each time.

Consider `COc1cc(NC(=O)Nc2cccc(CNC(=O)OC3COCC3OCC(=O)O)c2)ccc1-c1cnco1` (stereo not drawn) [Compound 71], for which, in experiment [1] (read-out: Ki), the Ki is below 10 nM. The IC50 is above 1000 nM in experiment [2] (Homo sapiens, 72 h) and above 1000 nM in experiment [3] (Homo sapiens, 72 h).

For the compound `COc1cc(NC(=O)Nc2cccc(CNC(=O)OC3COCC3OCC(=O)OC(C)(C)C)c2)ccc1-c1cnco1` (stereo not drawn) [Compound 72], the Ki in experiment [1] (read-out: Ki) was below 10 nM. For the same compound, the IC50 in experiment [2] and in experiment [3] was 100 to 1000 nM each time.

With `COc1cc(NC(=O)Nc2cccc(CNC(=O)OC3COCC3OCC(=O)O)c2)ccc1-c1cnco1` (stereo not drawn) [Compound 73], the Ki in experiment [1] (read-out: Ki) is below 10 nM. Besides, the IC50 in experiment [2] and in experiment [3] was above 1000 nM throughout.

The compound `COc1cc(NC(=O)Nc2cccc(CNC(=O)Oc3cccc(/C=C/C(=O)OC(C)(C)C)c3)c2)ccc1-c1cnco1` [Compound 74] returned a Ki in experiment [1] below 10 nM. Further, the half-inhibitory concentration (IC50) in experiment [2] (Homo sapiens, 72 h) is above 1000 nM; in experiment [3] (Homo sapiens, 72 h), above 1000 nM.

Turning to `COc1cc(NC(=O)Nc2cccc(CNC(=O)OC3COCC3OCC#N)c2)ccc1-c1cnco1` (stereo not drawn) [Compound 75], in experiment [1] (read-out: Ki), the Ki was below 10 nM. The IC50 fell in the range of 100 to 1000 nM in experiment [2] (Homo sapiens, 72 h) and 100 to 1000 nM in experiment [3] (Homo sapiens, 72 h).

For `COc1cc(NC(=O)Nc2cccc(CNC(=O)OC3COCC3OCC#N)c2)ccc1-c1cnco1` (stereo not drawn) [Compound 76], the Ki in experiment [1] (read-out: Ki) is below 10 nM. Also, the IC50 in experiment [2] and in experiment [3] was below 100 nM in each case.

Turning to `COc1cc(NC(=O)Nc2cccc(CNC(=O)O[C@@H]3CCN(S(=O)(=O)N(C)C)C3)c2)ccc1-c1cnco1` [Compound 77], in experiment [1] (read-out: Ki), the Ki is below 10 nM. Further, the IC50 lay in the range of 100 to 1000 nM in experiment [2] (Homo sapiens, 72 h) and 100 to 1000 nM in experiment [3] (Homo sapiens, 72 h).

`COc1cc(NC(=O)Nc2cccc(CNC(=O)O[C@@H]3C=C[C@H](OC(C)=O)C3)c2)ccc1-c1cnco1` [Compound 78]: the Ki in experiment [1] (read-out: Ki) was below 10 nM. Besides, the IC50 in experiment [2] (Homo sapiens, 72 h) is 100 to 1000 nM; in experiment [3] (Homo sapiens, 72 h), 100 to 1000 nM.

For `COc1cc(NC(=O)Nc2cccc(CNC(=O)OC(CC#N)C(F)(F)F)c2)ccc1-c1cnco1` (stereo not drawn) [Compound 79], the Ki in experiment [1] (read-out: Ki) was below 10 nM. The IC50 lay within 100 to 1000 nM in experiment [2] (Homo sapiens, 72 h) and 100 to 1000 nM in experiment [3] (Homo sapiens, 72 h).

Consider `CCN(CC)CC(CO)OC(=O)NCc1cccc(NC(=O)Nc2ccc(-c3cnco3)c(OC)c2)c1` (stereo not drawn) [Compound 80], for which the Ki in experiment [1] (read-out: Ki) is below 10 nM. Besides, the IC50 was 100 to 1000 nM in experiment [2] (Homo sapiens, 72 h) and 100 to 1000 nM in experiment [3] (Homo sapiens, 72 h).

As to `CC[C@H](CC#N)OC(=O)NCc1cccc(NC(=O)Nc2ccc(-c3cnco3)c(OC)c2)c1` [Compound 81], the Ki in experiment [1] (read-out: Ki) is 10 to 50 nM. Besides, the IC50 in experiment [2] (Homo sapiens, 72 h) lay in the range of 100 to 1000 nM; in experiment [3] (Homo sapiens, 72 h), 100 to 1000 nM.

Consider `CC[C@@H](CC#N)OC(=O)NCc1cccc(NC(=O)Nc2ccc(-c3cnco3)c(OC)c2)c1` [Compound 82], for which, in experiment [1] (read-out: Ki), the Ki is above 50 nM. Besides, the IC50 in experiment [2] (Homo sapiens, 72 h) lay in the range of 100 to 1000 nM; in experiment [3] (Homo sapiens, 72 h), 100 to 1000 nM.

Turning to `CC[C@H](CCC#N)OC(=O)NCc1cccc(NC(=O)Nc2ccc(-c3cnco3)c(OC)c2)c1` [Compound 83], the Ki in experiment [1] (read-out: Ki) was 10 to 50 nM. Besides, the IC50 is 100 to 1000 nM in experiment [2] (Homo sapiens, 72 h) and 100 to 1000 nM in experiment [3] (Homo sapiens, 72 h).

Consider `CCC(CN1CC[S+]([O-])CC1)OC(=O)NCc1cccc(NC(=O)Nc2ccc(-c3cnco3)c(OC)c2)c1` (stereo not drawn) [Compound 84], for which the Ki in experiment [1] (read-out: Ki) was 10 to 50 nM. Moreover, the IC50 in experiment [2] (Homo sapiens, 72 h) was in the range of 100 to 1000 nM; in experiment [3] (Homo sapiens, 72 h), 100 to 1000 nM.

As to `CCC(CN(CC)CC)OC(=O)NCc1cccc(NC(=O)Nc2ccc(-c3cnco3)c(OC)c2)c1` (stereo not drawn) [Compound 87], in experiment [1] (read-out: Ki), the Ki is below 10 nM. In addition, the IC50 in experiment [2] (Homo sapiens, 72 h) is below 100 nM; in experiment [3] (Homo sapiens, 72 h), below 100 nM.

As to `COc1cc(NC(=O)Nc2cccc(CNC(=O)O[C@@H](CO)CSC)c2)ccc1-c1cnco1` [Compound 88], the Ki in experiment [1] (read-out: Ki) was below 10 nM. Besides, the IC50 in experiment [2] (Homo sapiens, 72 h) was in the range of 100 to 1000 nM; in experiment [3] (Homo sapiens, 72 h) it was 100 to 1000 nM.

Consider `COc1cc(NC(=O)Nc2cccc(CNC(=O)OC(CCC#N)C(F)(F)F)c2)ccc1-c1cnco1` (stereo not drawn) [Compound 90], for which, in experiment [1] (read-out: Ki), the Ki was below 10 nM. The IC50 was in the range of 100 to 1000 nM in experiment [2] (Homo sapiens, 72 h) and 100 to 1000 nM in experiment [3] (Homo sapiens, 72 h).

`CCC(C[N+]1([O-])CCS(=O)(=O)CC1)OC(=O)NCc1cccc(NC(=O)Nc2ccc(-c3cnco3)c(OC)c2)c1` (stereo not drawn) [Compound 91]: in experiment [1] (read-out: Ki), the Ki is below 10 nM. The IC50 is above 1000 nM in experiment [2] (Homo sapiens, 72 h) and above 1000 nM in experiment [3] (Homo sapiens, 72 h).

Take `CC[C@H](CCN(CC)CC)OC(=O)NCc1cccc(NC(=O)Nc2ccc(-c3cnco3)c(OC)c2)c1` [Compound 92]: in experiment [1] (read-out: Ki), the Ki is below 10 nM. Moreover, the IC50 in experiment [2] (Homo sapiens, 72 h) lay in the range of 100 to 1000 nM; in experiment [3] (Homo sapiens, 72 h), 100 to 1000 nM.

As for `COc1cc(NC(=O)Nc2cccc(CNC(=O)OCCCOP(=O)(O)O)c2)ccc1-c1cnco1` [Compound 97], the Ki in experiment [1] (read-out: Ki) lay within 10 to 50 nM. Further, the IC50 was below 100 nM in experiment [2] (Homo sapiens, 72 h) and below 100 nM in experiment [3] (Homo sapiens, 72 h).

Turning to `COc1cc(NC(=O)Nc2cccc(CNC(=O)O[C@H](CN3CCCC3)c3ccccc3)c2)ccc1-c1cnco1` [Compound 98], the inhibition constant Ki in experiment [1] (read-out: Ki) lay within 10 to 50 nM. Moreover, the IC50 in experiment [2] (Homo sapiens, 72 h) lay within 100 to 1000 nM; in experiment [3] (Homo sapiens, 72 h), 100 to 1000 nM.

For `COc1cc(NC(=O)Nc2cccc(CNC(=O)O[C@H](CN3CCCCC3)c3ccccc3)c2)ccc1-c1cnco1` [Compound 99], the inhibition constant Ki in experiment [1] (read-out: Ki) fell in the range of 10 to 50 nM. Also, the IC50 in experiment [2] (Homo sapiens, 72 h) lay within 100 to 1000 nM; in experiment [3] (Homo sapiens, 72 h) it was 100 to 1000 nM.

With `CCC(OC(=O)NCc1cccc(NC(=O)Nc2ccc(-c3cnco3)c(OC)c2)c1)C(C)(C)C#N` (stereo not drawn) [Compound 100], the Ki in experiment [1] (read-out: Ki) fell in the range of 10 to 50 nM. The IC50 fell in the range of 100 to 1000 nM in experiment [2] (Homo sapiens, 72 h) and 100 to 1000 nM in experiment [3] (Homo sapiens, 72 h).

Take `CC[C@@H](CCC#N)OC(=O)NCc1cccc(NC(=O)Nc2ccc(-c3cnco3)c(OC)c2)c1` [Compound 101]: the inhibitory constant (Ki) in experiment [1] (read-out: Ki) is below 10 nM. Further, the IC50 in experiment [2] (Homo sapiens, 72 h) was below 100 nM; in experiment [3] (Homo sapiens, 72 h), below 100 nM.

As to `CC[C@@H](CCN(CC)CC)OC(=O)NCc1cccc(NC(=O)Nc2ccc(-c3cnco3)c(OC)c2)c1` [Compound 102], the Ki in experiment [1] (read-out: Ki) was below 10 nM. For the same compound, the IC50 in experiment [2] (Homo sapiens, 72 h) lay in the range of 100 to 1000 nM; in experiment [3] (Homo sapiens, 72 h) it was 100 to 1000 nM.

As for `CCC(OC(=O)NCc1cccc(NC(=O)Nc2ccc(-c3cnco3)c(OC)c2)c1)C1(C#N)CC1` (stereo not drawn) [Compound 103], the Ki in experiment [1] (read-out: Ki) is above 50 nM. For the same compound, the IC50 in experiment [2] (Homo sapiens, 72 h) is 100 to 1000 nM; in experiment [3] (Homo sapiens, 72 h), below 100 nM.

In the case of `COc1cc(NC(=O)Nc2cccc(CNC(=O)OC(CC#N)C3CC3)c2)ccc1-c1cnco1` (stereo not drawn) [Compound 104], the Ki in experiment [1] (read-out: Ki) fell in the range of 10 to 50 nM. For the same compound, the IC50 in experiment [2] (Homo sapiens, 72 h) was below 100 nM; in experiment [3] (Homo sapiens, 72 h) it was below 100 nM.

Consider `CCCN(CCC(OC(=O)NCc1cccc(NC(=O)Nc2ccc(-c3cnco3)c(OC)c2)c1)c1ccccc1)C(C)C` (stereo not drawn) [Compound 107], for which the Ki in experiment [1] (read-out: Ki) was above 50 nM. The IC50 in experiment [2] (Homo sapiens, 72 h) lay within 100 to 1000 nM; in experiment [3] (Homo sapiens, 72 h), 100 to 1000 nM.

Consider `CCCN(C[C@@H](OC(=O)NCc1cccc(NC(=O)Nc2ccc(-c3cnco3)c(OC)c2)c1)c1ccccc1)C(C)C` [Compound 108], for which the Ki in experiment [1] (read-out: Ki) was above 50 nM. Also, the IC50 in experiment [2] (Homo sapiens, 72 h) is 100 to 1000 nM; in experiment [3] (Homo sapiens, 72 h), below 100 nM.

Consider `COc1cc(NC(=O)Nc2cccc(CNC(=O)O[C@H](CN(CC(C)C)C(C)C)c3ccccc3)c2)ccc1-c1cnco1` [Compound 109], for which, in experiment [1] (read-out: Ki), the Ki is above 50 nM. For the same compound, the IC50 in experiment [2] (Homo sapiens, 72 h) is 100 to 1000 nM; in experiment [3] (Homo sapiens, 72 h), 100 to 1000 nM.
